This note sets out measurements from US10654876B2, “TH-302 solid forms and methods related thereto” (Molecular Templates, Inc., priority 2014, dated 2020).

Each structure is given as a SMILES string.

Series [1] is described as follows: Stability of crystalline form A to relative humidity. It is filed as physicochemical. The conditions noted are these: 15% relative humidity (RH) at 25° C.; anhydrous crystalline form A. The procedure:
(§1) Crystalline form A of TH-302 is anhydrous which is stable to 15% relative humidity (RH) at 25° C. No change in the chemical purity of TH-302 was observed after one week when in accelerated stability tests at high temperature (40° C.) and high relative humidity (75% RH). An improvement in the physical appearance of a dosage form of a drug enhances both physician and patient acceptance and increases the likelihood of success of the treatment.

Series [2] can be described thus: Accelerated stability test at high temperature and high relative humidity. As to conditions: 40° C., 75% RH, after one week. It is filed as physicochemical. The method, then:
as §1

`Cn1c(COP(=O)(NCCBr)NCCBr)cnc1[N+](=O)[O-]` [TH-302, N,N′-Bis(2-bromoethyl)phosphorodiamidic acid (1-methyl-2-nitro-1H-imidazol-5-yl)methyl ester]: the “stability to relative humidity” value in series [1] was “stable”. The “change in the chemical purity” value in series [2] is listed as “No change”.
